Assays:
[1] = fatty Zucker rats; cited from earlier work
[2] = Glycemia in obese Zucker rats under fenofibrate, rosiglitazone or co-administration (Example 1); format: in vivo
Experimental: (§1) Male homozygous Zucker rats of 9 to 11 weeks of age and their lean controls were received from Iffa-Credo (France). They were put into individual cages in a temperature-, humidity- and light-controlled room (21-23° C., 12-12 h light-dark cycle). […] After acclimatization, they were randomized into groups of 10, based on body weight.
(§2) The experimental groups were: Group 1=lean rats, untreated; Group 2=obese rats, treated with the vehicle p.o., twice daily (at 8 a.m. and 8 p.m.); Group 3=obese rats, treated with Fenofibrate, 100 mg/kg, p.o., twice daily (at 8 a.m. and 8 p.m.); Group 4=obese rats, treated with Rosiglitazone. 0.3 mg/kg, p.o., twice daily (at 8 a.m. and 8 p.m.); Group 5=obese rats, treated with Rosiglitazone, 3.0 mg/kg., p.o., twice daily (at 8 a.m. and 8 p.m.); Group 6=obese rats, treated with Fenofibrate, 100 mg/kg and Rosiglitazone, 0.3 mg/kg, p.o., twice daily (at 8 a.m. and 8 p.m.); Group 7=obese rats, treated with Fenofibrate, 100 mg/kg and Rosiglitazone, 3.0 mg/kg, p.o., twice daily (at 8 a.m. and 8 p.m.).
(§3) The following parameters were monitored: glycemia (mg/dl) and body weight gain (g).

[3] = Body weight (gain) in obese Zucker rats under fenofibrate, rosiglitazone or co-administration (Example 1); format: in vivo
Experimental: as §1, §2, §3

[4] = Group 4: Rosiglitazone 0.3 mg/kg p.o. twice daily, after 41 days of treatment
[5] = Group 4: Rosiglitazone 0.3 mg/kg p.o. twice daily, after 69 days of treatment
[6] = Group 5: Rosiglitazone 3.0 mg/kg p.o. twice daily, after 41 days of treatment
[7] = Group 5: Rosiglitazone 3.0 mg/kg p.o. twice daily, after 69 days of treatment
[8] = Group 3: Fenofibrate 100 mg/kg p.o. twice daily, after 41 days of treatment
[9] = Group 3: Fenofibrate 100 mg/kg p.o. twice daily, after 69 days of treatment

COc1ccc(CC2SC(=O)NC2=O)cc1C(=O)NCc1ccc(C(F)(F)F)cc1 (stereo not drawn) [KRP 297]
body weight gain (result in words) [1]: no change in body weight gain | serum insulin (result in words) [1]: affected serum triglycerides and insulin | serum triglycerides (result in words) [1]: affected serum triglycerides and insulin

CN(CCOc1ccc(CC2SC(=O)NC2=O)cc1)c1ccccn1 (stereo not drawn) [Rosiglitazone, rosiglitazone]
Glycemia [2, 4]: 274.6 ± 56.4 mg/dL | Glycemia [2, 5]: 446.0 ± 52.4 mg/dL | Glycemia [2, 6]: 119.6 ± 5.9 mg/dL | Glycemia [2, 7]: 151.4 ± 6.5 mg/dL | Body Weight [3, 4]: 538.5 ± 15.8 g | Body Weight [3, 5]: 615.2 ± 25.9 g | Body Weight [3, 6]: 601.4 ± 9.3 g | Body Weight [3, 7]: 721.0 ± 12.3 g

CC(C)OC(=O)C(C)(C)Oc1ccc(C(=O)c2ccc(Cl)cc2)cc1 [Fenofibrate, fenofibrate]
Glycemia [2, 8]: 222.2 ± 53.1 mg/dL | Glycemia [2, 9]: 372.5 ± 78.5 mg/dL | Body Weight [3, 8]: 357.0 ± 7.9 g | Body Weight [3, 9]: 380.6 ± 13.7 g

Reference: patent US20090099238A1, “USE OF A PPAR-ALPHA AGONIST TO TREAT PATIENTS SUFFERING FROM WEIGHT GAIN ASSOCIATED WITH A PPAR-GAMMA AGONIST TREATMENT” (priority 2003, published 2009)
